The target in the test is T1, Recombinant human HSD17B13 enzyme (Homo sapiens, UniProt Q7Z5P4).
T1 sequence (Q7Z5P4 20-300): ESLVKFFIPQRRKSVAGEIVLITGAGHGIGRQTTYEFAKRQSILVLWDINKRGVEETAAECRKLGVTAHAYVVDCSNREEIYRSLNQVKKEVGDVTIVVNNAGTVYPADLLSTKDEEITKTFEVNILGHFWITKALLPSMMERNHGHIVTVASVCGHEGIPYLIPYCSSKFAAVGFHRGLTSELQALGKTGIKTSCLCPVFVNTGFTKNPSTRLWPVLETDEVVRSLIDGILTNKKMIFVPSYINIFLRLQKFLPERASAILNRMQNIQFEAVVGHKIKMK
Put plainly: HSD17b13 NAD(P)H-Glo biochemical assay. The following applies: for IC50: 50 uM estradiol, 1 mM NAD+, NAD(P)H-Glo luminescence, read-out: HSD17β13 IC50; for inhibition at 30 µM: at 30 uM compound, read-out: HSD17β13 % inhibition at 30 uM. The gist of the method: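 Recombinant human HSD17B13 in 20 mM Tris pH7.4 with 0.002% Tween-20 and 0.02% BSA was preincubated with inhibitor for 20 minutes at RT. The reaction ran 3 hours at 37° C with 50 uM estradiol and 1 mM NAD+ (final). NADH formed was detected by NAD(P)H-Glo luminescence after 1 hour at RT.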

Our source for the IC50 and inhibition values is patent US20240083861A1, “HSD17B13 INHIBITORS AND USES THEREOF” (FL2022-001, Inc., priority 2020, published 2024).

A value given as a limit tells only on which side of the number the result lay.

What is called IC50 is the concentration needed to halve the response being measured. The inhibition is the percentage by which the read-out fell short of the control.

Turning to `C[C@@H]1CN(c2cc3c(cn2)c(-c2cc(C(F)(F)F)c(F)c(O)c2F)nn3C)CCN1C(=O)Nc1ccccc1` [Compound 21.07, (R)-4-(3-(2,4-Difluoro-3-hydroxy-5-(trifluoromethyl)phenyl)-1-methyl-1H-pyrazolo[4,3-c]pyridin-6-y1)-2-methyl-N-phenylpiperazine-1-carboxamide], the IC50 was < 0.1 µM.

As for `Cn1nc(-c2cc(C(F)(F)F)c(F)c(O)c2F)c2cnc(N3CCN(C(=O)Nc4ccccc4)C4(CC4)C3)cc21` [Compound 21.08, 7-(3-(2,4-Difluoro-3-hydroxy-5-(trifluoromethyl)phenyl)-1-methyl-1H-pyrazolo[4,3-c]pyridin-6-y1)-N-phenyl-4,7-diazaspiro[2.5]octane-4-carboxamide], the IC50 was < 0.1 µM.

For `CN(c1cc2c(cn1)c(-c1nc(C(F)(F)F)c(F)c(O)c1F)nn2C)C1CCOCC1` [Compound 22, 3,5-Difluoro-2-(1-methyl-6-(methyl(tetrahydro-2H-pyran-4-yl)amino)-1H-pyrazolo[4,3-c]pyridin-3-yl)-6-(trifluoromethyl)pyridin-4-ol], the IC50 is 0.1 to 1 µM.

`O=C(NC1CCC1)c1ccc2oc(-c3cc(O)cc(C(F)(F)F)c3F)nc2c1` [Compound 23, N-Cyclobuty1-2-(2-fluoro-5-hydroxy-3-(trifluoromethyl)phenyl)benzo[d] oxazole-5-carboxamide]: the inhibition at 30 µM was found to be 20%.

On to `O=C(NC12CC(C1)C2)c1ccc2oc(-c3c(F)cc(F)c(O)c3F)nc2c1` [Compound 23.01, N-(Bicyclo[1.1.1]pentan-1-y1)-2-(2,4,6-trifluoro-3-hydroxyphenyl)benzo[d]oxazole-5-carboxamide], for which the inhibition at 30 µM is < 20%.
